Test results taken from the supplement of paper PMC11061612.

Key:
[1] = tested on: NCI-H2023 (Non-Small Cell Lung Carcinoma); experiment: Bliss excess, mean over the matrix (fraction); higher = more synergy
Summary of the method: (§1)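 Bliss excess equals the observed combination effect minus the expected value EA + EB − EA·EB, where EA and EB are the effects of each agent alone. Combination Emax is the second-highest inhibition within the matrix. Inhibition was scaled from CellTiter-Glo 2.0 luminescence, with 0 set by vehicle wells and 1 by blank wells, after 72 hours of two-drug dosing of cells plated in 1536-well plates.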

[2] = tested on: MDA-MB-175-VII (Breast Carcinoma); experiment: as above
Summary of the method: as §1

[3] = tested on: OCI-M1 (Acute Myeloid Leukemia); experiment: as above
Summary of the method: as §1

[4] = tested on: ATN-1 (T-Lymphoblastic Leukemia); experiment: as above
Summary of the method: as §1

[5] = tested on: NCI-H2452 (Mesothelioma); experiment: as above
Summary of the method: as §1

[6] = tested on: HT-144 (Melanoma); experiment: as above
Summary of the method: as §1

[7] = tested on: MG-63 (Osteosarcoma); experiment: as above
Summary of the method: as §1

[8] = tested on: NTERA-2-cl-D1 (Other Solid Carcinomas); experiment: as above
Summary of the method: as §1

[9] = tested on: MDA-MB-175-VII (Breast Carcinoma); experiment: combination Emax (second highest fraction inhibited in the dose matrix, 72 h); higher = more inhibition; extreme values may be limits of the assay
Summary of the method: as §1

[10] = tested on: HT-1197 (Bladder Carcinoma); experiment: as above
Summary of the method: as §1

[11] = tested on: MRK-nu-1 (Breast Carcinoma); experiment: as above
Summary of the method: as §1

[12] = tested on: L-363 (Plasma Cell Myeloma); experiment: as above
Summary of the method: as §1

[13] = tested on: HT-3 (Cervical Carcinoma); experiment: as above
Summary of the method: as §1

[14] = tested on: SUP-HD1 (Hodgkin's Lymphoma); experiment: as above
Summary of the method: as §1

[15] = tested on: NCI-H1435 (Non-Small Cell Lung Carcinoma); experiment: as above
Summary of the method: as §1

[16] = tested on: NCI-H2170 (Squamous Cell Lung Carcinoma); experiment: as above
Summary of the method: as §1

[17] = tested on: KNS-62 (Squamous Cell Lung Carcinoma); experiment: as above
Summary of the method: as §1

[18] = tested on: GCIY (Gastric Carcinoma); experiment: as above
Summary of the method: as §1

[19] = tested on: GRANTA-519 (B-Cell Non-Hodgkin's Lymphoma); experiment: as above
Summary of the method: as §1

[20] = tested on: IGROV-1 (Ovarian Carcinoma); experiment: as above
Summary of the method: as §1

Structure (SMILES): CC(=O)c1c(C)c2cnc(Nc3ccc(N4CCNCC4)cn3)nc2n(C2CCCC2)c1=O [Palbociclib] + Cn1cnc2c(F)c(Nc3ccc(Br)cc3Cl)c(C(=O)NOCCO)cc21 [Selumetinib] (first compound max 10 µM, 7x7, partner max 10 µM)
- Bliss excess [1]: -0.0313
- Bliss excess [2]: -0.0013
- Bliss excess [3]: 0.0125
- Bliss excess [4]: 0.0209
- Bliss excess [5]: -0.0682
- Bliss excess [6]: -0.0029
- Bliss excess [7]: 0.0263
- Bliss excess [8]: -0.007
- combination Emax [9]: 0.389
- combination Emax [10]: 0.245
- combination Emax [11]: 0.438
- combination Emax [12]: 0.301
- combination Emax [13]: 0.138
- combination Emax [14]: 0.445
- combination Emax [15]: 0.147
- combination Emax [16]: 0.3
- combination Emax [17]: 0.552
- combination Emax [18]: 0.416
- combination Emax [19]: 0.367
- combination Emax [20]: 0.782

Structure (SMILES): Cn1cnc2c(F)c(Nc3ccc(Br)cc3Cl)c(C(=O)NOCCO)cc21 [Selumetinib] + CCN(CCO)CCCOc1ccc2c(Nc3cc(CC(=O)Nc4cccc(F)c4)[nH]n3)ncnc2c1 [AZD2811] (first compound max 10 µM, 7x7, partner max 1 µM)
- Bliss excess [1]: -0.0294
- Bliss excess [2]: 0.0109
- Bliss excess [3]: 0.0927
- Bliss excess [4]: -0.0981
- Bliss excess [5]: -0.0726
- Bliss excess [6]: 0.0172
- Bliss excess [7]: -0.0494
- Bliss excess [8]: 0.0056
- combination Emax [9]: 0.485
- combination Emax [10]: 0.223
- combination Emax [11]: 0.548
- combination Emax [12]: 0.116
- combination Emax [13]: 0.367
- combination Emax [14]: 0.453
- combination Emax [15]: 0.106
- combination Emax [16]: 0.64
- combination Emax [17]: 0.495
- combination Emax [18]: 0.371
- combination Emax [19]: 0.439
- combination Emax [20]: 0.665

Structure (SMILES): CC1(C)CCC(CN2CCN(c3ccc(C(=O)NS(=O)(=O)c4ccc(NCC5CCOCC5)c([N+](=O)[O-])c4)c(Oc4cnc5[nH]ccc5c4)c3)CC2)=C(c2ccc(Cl)cc2)C1 [Venetoclax] + CN(C)CCCOc1ccc(-c2ccc3ncc4c(c3c2)n(C2CCOCC2)c(=O)n4C)cn1 [AZD0156] (first compound max 1 µM, 7x7, partner max 1 µM)
- Bliss excess [1]: -0.058
- Bliss excess [2]: -0.0319
- Bliss excess [3]: -0.0299
- Bliss excess [4]: 0.0437
- Bliss excess [5]: -0.0149
- Bliss excess [6]: 0.0366
- Bliss excess [7]: 0.0063
- Bliss excess [8]: -0.0372
- combination Emax [9]: 0.174
- combination Emax [10]: 0.198
- combination Emax [11]: 0.132
- combination Emax [12]: 0.867
- combination Emax [13]: 0.145
- combination Emax [14]: 0.761
- combination Emax [15]: 0.17
- combination Emax [16]: 0.243
- combination Emax [17]: 0.262
- combination Emax [18]: 0.403
- combination Emax [19]: 0.388
- combination Emax [20]: 0.535

Structure (SMILES): COc1cccc(OCCCN)c1-c1cc(Nc2cnc(C#N)cn2)n[nH]1 [Prexasertib] + C[C@@H]1COCCN1C2=NC(=NC(=C2)C3(CC3)[S@](=N)(=O)C)C4=C5C=CNC5=NC=C4 [AZD6738] (first compound max 1 µM, 7x7, partner max 10 µM)
- Bliss excess [1]: 0.0108
- Bliss excess [2]: -0.0016
- Bliss excess [3]: -0.0504
- Bliss excess [4]: -0.0207
- Bliss excess [5]: -0.0061
- Bliss excess [6]: -0.0217
- Bliss excess [7]: 0.0234
- Bliss excess [8]: 0.0172
- combination Emax [9]: 0.398
- combination Emax [10]: 0.603
- combination Emax [11]: 0.746
- combination Emax [12]: 1
- combination Emax [13]: 0.679
- combination Emax [14]: 0.903
- combination Emax [15]: 0.283
- combination Emax [16]: 0.847
- combination Emax [17]: 0.555
- combination Emax [18]: 0.911
- combination Emax [19]: 0.856
- combination Emax [20]: 0.754

Structure (SMILES): CC1(C)CCC(CN2CCN(c3ccc(C(=O)NS(=O)(=O)c4ccc(NCC5CCOCC5)c([N+](=O)[O-])c4)c(Oc4cnc5[nH]ccc5c4)c3)CC2)=C(c2ccc(Cl)cc2)C1 [Venetoclax] + COc1cc(Nc2ncc3c(n2)-c2ccc(Cl)cc2C(c2c(F)cccc2OC)=NC3)ccc1C(=O)O [Alisertib] (first compound max 1 µM, 7x7, partner max 10 µM)
- Bliss excess [1]: -0.0679
- Bliss excess [2]: -0.0221
- Bliss excess [3]: 0.0977
- Bliss excess [4]: -0.013
- Bliss excess [5]: 0.0053
- Bliss excess [6]: 0.0089
- Bliss excess [7]: -0.0116
- Bliss excess [8]: 0.0304
- combination Emax [9]: 0.238
- combination Emax [10]: 0.163
- combination Emax [11]: 0.628
- combination Emax [12]: 0.772
- combination Emax [13]: 0.0652
- combination Emax [14]: 0.906
- combination Emax [15]: 0.287
- combination Emax [16]: 0.666
- combination Emax [17]: 0.283
- combination Emax [18]: 0.94
- combination Emax [19]: 0.969
- combination Emax [20]: 0.789

Structure (SMILES): CC(=O)Nc1cccc(-n2c(=O)n(C3CC3)c(=O)c3c(Nc4ccc(I)cc4F)n(C)c(=O)c(C)c32)c1 [Trametinib] + Cc1nc(-c2cn3c(n2)-c2ccc(-c4cnn(C(C)(C)C(N)=O)c4)cc2OCC3)n(C(C)C)n1 [Taselisib] (first compound max 1 µM, 7x7, partner max 10 µM)
- Bliss excess [1]: 0.0549
- Bliss excess [2]: 0.232
- Bliss excess [3]: 0.0652
- Bliss excess [4]: -0.0503
- Bliss excess [5]: 0.101
- Bliss excess [6]: 0.0234
- Bliss excess [7]: 0.0237
- Bliss excess [8]: 0.022
- combination Emax [9]: 1
- combination Emax [10]: 0.76
- combination Emax [11]: 0.814
- combination Emax [12]: 0.635
- combination Emax [13]: 0.673
- combination Emax [14]: 0.616
- combination Emax [15]: 0.896
- combination Emax [16]: 0.919
- combination Emax [17]: 0.827
- combination Emax [18]: 0.99
- combination Emax [19]: 0.189
- combination Emax [20]: 0.966

Structure (SMILES): NC1(C(=O)N[C@@H](CCO)c2ccc(Cl)cc2)CCN(c2ncnc3[nH]ccc23)CC1 [Capivasertib] + CC(=O)c1c(C)c2cnc(Nc3ccc(N4CCNCC4)cn3)nc2n(C2CCCC2)c1=O [Palbociclib] (first compound max 10 µM, 7x7, partner max 10 µM)
- Bliss excess [1]: 0.0276
- Bliss excess [2]: 0.0127
- Bliss excess [3]: -0.0056
- Bliss excess [4]: -0.0217
- Bliss excess [5]: -0.02
- Bliss excess [6]: -0.0486
- Bliss excess [7]: 0.0404
- Bliss excess [8]: 0.0373
- combination Emax [9]: 0.556
- combination Emax [10]: 0.551
- combination Emax [11]: 0.382
- combination Emax [12]: 0.509
- combination Emax [13]: 0.2
- combination Emax [14]: 0.569
- combination Emax [15]: 0.244
- combination Emax [16]: 0.527
- combination Emax [17]: 0.599
- combination Emax [18]: 0.631
- combination Emax [19]: 0.227
- combination Emax [20]: 0.86
